The source of these data is BindingDB's records for doi:10.1016/j.bmcl.2006.08.053 (Merck Research Laboratories, 2006).

Structures are written as SMILES. Bounds are passed on as bounds.

This assay can be described thus: Release of camptothecin-induced cell cycle arrest in NCI-H1299 cells mediated by CHEK1 inhibition.
`O=c1[nH]c2ccc(-c3cn[nH]c3)cc2cc1-c1cc2cc(CN3CCCCC3)ccc2[nH]1` came in with an EC50 of 97 nM.
Consider `N#Cc1ccc2[nH]c(=O)c(-c3cc4cc(CN5CCCCC5)ccc4[nH]3)cc2c1` [2-oxo-3-(5-(piperidin-1-ylmethyl)-1H-indol-2-yl)-1,2-dihydroquinoline-6-carbonitrile], for which the half-maximal effective concentration (EC50) was 170 nM.
Regarding `NC(=O)c1ccc2[nH]c(=O)c(-c3cc4cc(CN5CCCCC5)ccc4[nH]3)cc2c1` [2-oxo-3-(5-(piperidin-1-ylmethyl)-1H-indol-2-yl)-1,2-dihydroquinoline-6-carboxamide], the EC50 is 520 nM.
Then `COCC(=O)N1CCN(Cc2ccc3[nH]c(-c4cc5cc(-c6cn[nH]c6)ccc5[nH]c4=O)cc3c2)CC1` [3-(5-((4-(2-methoxyacetyl)piperazin-1-yl)methyl)-1H-indol-2-yl)-6-(1H-pyrazol-4-yl)quinolin-2(1H)-one], with 1140 nM.
Take `N#Cc1ccc2[nH]c(=O)c(-c3cc4cc(CN5CCC(CN)CC5)ccc4[nH]3)cc2c1` [3-(5-((4-(aminomethyl)piperidin-1-yl)methyl)-1H-indol-2-yl)-2-oxo-1,2-dihydroquinoline-6-carbonitrile]: the concentration giving a half-maximal response (EC50) was 3700 nM.
`NCC1CCN(Cc2ccc3[nH]c(-c4cc5cc(C(N)=O)ccc5[nH]c4=O)cc3c2)CC1` [3-(5-((4-(aminomethyl)piperidin-1-yl)methyl)-1H-indol-2-yl)-2-oxo-1,2-dihydroquinoline-6-carboxamide] showed an EC50 of 3900 nM.
Take `CC(=O)N1CCN(Cc2ccc3[nH]c(-c4cc5cc(-c6cnn(C)c6)ccc5[nH]c4=O)cc3c2)CC1` [3-(5-((4-acetylpiperazin-1-yl)methyl)-1H-indol-2-yl)-6-(1-methyl-1H-pyrazol-4-yl)quinolin-2(1H)-one]: the concentration for a half-maximal effect (EC50) stood at 420 nM.
As to `CC(=O)N1CCN(Cc2ccc3[nH]c(-c4cc5cc(-c6cn[nH]c6)ccc5[nH]c4=O)cc3c2)CC1` [3-(5-((4-acetylpiperazin-1-yl)methyl)-1H-indol-2-yl)-6-(1H-pyrazol-4-yl)quinolin-2(1H)-one], the EC50 was 870 nM.
Regarding `O=c1[nH]c2ccc(-c3cn[nH]c3)cc2cc1-c1cc2cc(CN3CCC(F)CC3)ccc2[nH]1` [3-(5-((4-fluoropiperidin-1-yl)methyl)-1H-indol-2-yl)-6-(1H-pyrazol-4-yl)quinolin-2(1H)-one], a half-maximal effect (EC50) was put at 120 nM.
The value for `O=c1[nH]c2ccc(-c3cn[nH]c3)cc2cc1-c1cc2cc(CN3CCOCC3)ccc2[nH]1` [3-(5-(morpholinomethyl)-1H-indol-2-yl)-6-(1H-pyrazol-4-yl)quinolin-2(1H)-one] was 170 nM; that for `O=c1[nH]c2ccc(-n3ccnn3)cc2cc1-c1cc2cc(CN3CCCCC3)ccc2[nH]1` [3-(5-(piperidin-1-ylmethyl)-1H-indol-2-yl)-6-(1H-1,2,3-triazol-1-yl)quinolin-2(1H)-one] was 230 nM.
Molecule `O=c1[nH]c2ccc(-c3cc[nH]n3)cc2cc1-c1cc2cc(CN3CCCCC3)ccc2[nH]1` [3-(5-(piperidin-1-ylmethyl)-1H-indol-2-yl)-6-(1H-pyrazol-3-yl)quinolin-2(1H)-one] came in with a 50% effective concentration (EC50) of 250 nM.
Then `O=c1[nH]c2ccc(-n3nccn3)cc2cc1-c1cc2cc(CN3CCCCC3)ccc2[nH]1` [3-(5-(piperidin-1-ylmethyl)-1H-indol-2-yl)-6-(2H-1,2,3-triazol-2-yl)quinolin-2(1H)-one], with 880 nM; and `Cn1cc(-c2ccc3[nH]c(=O)c(-c4cc5cc(CN6CCCCC6)ccc5[nH]4)cc3c2)cn1` [6-(1-methyl-1H-pyrazol-4-yl)-3-(5-(piperidin-1-ylmethyl)-1H-indol-2-yl)quinolin-2(1H)-one], with 130 nM; and `O=c1[nH]c2ccc(-n3ccnc3)cc2cc1-c1cc2cc(CN3CCCCC3)ccc2[nH]1` [6-(1H-imidazol-1-yl)-3-(5-(piperidin-1-ylmethyl)-1H-indol-2-yl)quinolin-2(1H)-one], with 320 nM.
`Cn1nnc(-c2ccc3[nH]c(=O)c(-c4cc5cc(CN6CCCCC6)ccc5[nH]4)cc3c2)n1` [6-(2-methyl-2H-tetrazol-5-yl)-3-(5-(piperidin-1-ylmethyl)-1H-indol-2-yl)quinolin-2(1H)-one] displayed a 50% effective concentration (EC50) of 1300 nM.
`O=c1[nH]c2ccc(-c3cccc(O)c3)cc2cc1-c1cc2cc(CN3CCCCC3)ccc2[nH]1` [6-(3-hydroxyphenyl)-3-(5-(piperidin-1-ylmethyl)-1H-indol-2-yl)quinolin-2(1H)-one] registered an EC50 of 6300 nM.
In the case of `COc1cc(-c2ccc3[nH]c(=O)c(-c4cc5cc(CN6CCCCC6)ccc5[nH]4)cc3c2)ccc1O` [6-(4-hydroxy-3-methoxyphenyl)-3-(5-(piperidin-1-ylmethyl)-1H-indol-2-yl)quinolin-2(1H)-one], the EC50 was over 10000 nM.
The molecule `O=c1[nH]c2ccc(-c3cnsc3)cc2cc1-c1cc2cc(CN3CCCCC3)ccc2[nH]1` [6-(isothiazol-4-yl)-3-(5-(piperidin-1-ylmethyl)-1H-indol-2-yl)quinolin-2(1H)-one] displayed an EC50 of 190 nM.
For `O=c1[nH]c2ccc(Br)cc2cc1-c1cc2cc(CN3CCCCC3)ccc2[nH]1` [6-bromo-3-(5-(piperidin-1-ylmethyl)-1H-indol-2-yl)quinolin-2(1H)-one], the EC50 was 460 nM.
